Assay results reported in US20240024287A1, “APPLICATION OF ANLE138B IN DRUG FOR IMPROVING DIET-INDUCED INSULIN RESISTANCE” (The First Affiliated Hospital of Shantou University Medical …, priority 2022, published 2024).
“And” between values parts separate entries of the source, which are not always exact repeats. Equal values may be shown once. Marks after values point to notes of the source that are not given here.

Columns and labels:
[1] = test system: high-fat-induced rat insulin resistance models; assay: High-fat-induced rat insulin resistance model, therapeutic administration; format: in vivo
Excerpt: (§1) 8-week-old male […] were selected as experimental animals. The rats were adaptively fed for 1 week after purchase, and then weighed for the fasting body weight. The healthy rats weighing 22-24 g were selected and randomly divided into groups according to the experimental flow design. (1) The rats were fed with normal feed and high-fructose feed for 8 weeks; (2) the rats were fed with high-fat feed for 12 weeks; (3) the rats were fed with high-fat feed for 8 weeks as a preventive experiment. Fasting body weights were measured and recorded regularly every week, and the rats were guaranteed to have free access to water and food during feeding. The food intake, water intake, and free movement of the model rats were continuously observed, and the rats with stunted growth, rough hair, and rickety posture after eating high-fructose and high-fat diets were screened out. In the experiment later, the rats were fed with normal feed or high-fructose/high-fat feed during the 2 weeks of intraperitoneal injection to ensure the consistency before and after administration.
(§2) A total energy-to-mass ratio was 4.73 kcal/g. The feed was provided by Beijing Huafukang Biotechnology Co., Ltd.
(§3) Anle138b solutions: The drug doses required for 1 week of intervention for each group of rats were calculated, Anle138b drug concentrations of 1 mg/kg (0.01%), 3 mg/kg (0.03%) and 5 mg/kg (0.05%) were prepared, Anle138b powder was weighed and then added in 10% DMSO, 40% PEG300, 5% Tween-80 and 45% saline in sequence, each mixture was evenly blended by vortex into a clear solution, and each Anle138b solution was separately bottled according to the daily dose and stored in a refrigerator at 4° C.
(§4) The 8-week-old adult rats were modeled by changing the diets after 1 week of adaptive feeding. Blood was collected from the right orbital venous plexus with a glass tube at 8 weeks and 12 weeks after model establishment and after fasting (>12 h), and blood glucose levels were measured with a blood glucose tester (Sannuo GA-3); and the insulin resistance mode was judged by the subsequent determination of metabolic indexes, such as glucose tolerance test by intraperitoneal injection, fasting serum insulin (enzyme-linked immunosorbent assay, Raybiotech), serum triglyceride (GPO-PAP single-reagent microplate method, Nanjing Jiancheng) and cholesterol ([…] single-reagent microplate method, Nanjing Jiancheng).
The rat IR models were randomly divided into two groups, the rats were administrated with Anle138b 3 mg/kg (n=6, 0.03%) and 5 mg/kg (n=6, 0.05%) for 2 weeks continuously, once a day.
After the models were determined to be successful, the average value of food intake of each rat in the first two days was taken as its own food intake base. After the drug intervention, the daily food intake and body weight were measured and compared with their own bases for comparison of the standardized food intake and body weight of each rat. […]

normal rats = assay: Normal rats given Anle138b (normal drug / drug control group); format: in vivo; conditions: 3 mg/kg i.p., 2 weeks
Excerpt: as §1, §3, §4
(1) The normal rats were randomly divided into two groups: blank control group (n=6) and drug control group (n=7); the rats in the normal control group were intraperitoneally injected with a similar volume of solvent and Anle138b (3 mg/kg, 0.03%) according to the body weight for 2 weeks.

[2] = test system: high-fructose-induced rat insulin resistance models; assay: High-fructose-induced rat insulin resistance model, therapeutic administration; format: in vivo
Excerpt: as §1, §3
L-THP solution: The drug dose required for 1 week of intervention for each group of rats was calculated, L-THP drug concentrations of 3 mg/kg (0.03%) was prepared, light yellow L-THP powder was weighed and then added in 10% DMSO, 40% PEG300, 5% Tween-80 and 45% saline in sequence, each mixture was evenly blended by vortex into a clear solution, and each Anle138b solution was separately bottled according to the daily dosage and stored in a refrigerator at 4° C.
as §4
The rats were fed with 60% high-fructose diet for 8 weeks to establish insulin resistance models, and the rats fed with normal diet provided by the animal room of Shantou University Medical College were used as controls. After fasting, orbital blood was collected, and fasting blood glucose, serum insulin, glucose tolerance were determined to judge whether the modeling was successful. According to an insulin resistance index (HOMA-IR) as the core judgment index, the successfully modeled rats were enrolled by screening the IR index of >3 and randomly divided into groups to explore the influence of different concentrations of Anle138b on the rat insulin resistance models. The concentration gradients for different groups were 0 mg/kg (injection solvent, namely the model control group), 1 mg/kg, 3 mg/kg and 5 mg/kg clear Anle138b solution, as well as the L-THP 3 mg/kg positive drug control group. The rats were administrated by intraperitoneal injection for 2 weeks continuously, once a day.
The insulin resistance value was calculated in combination with the method for calculating the insulin resistance index (HOMA-IR) in the homeostasis model assessment method. […]

[3] = test system: high-fat-induced rat insulin resistance models; assay: Anle138b treatment versus paired-feed (PF) group in high-fat rat insulin resistance models; format: in vivo; conditions: high-fat model, 5 mg/kg, compared with PF group
Method: The rats fed with high-fat diet for 8 weeks were divided into paired-feed group (n=7) (the food intake was the same as that of high-fat Anle138b 5 mg/kg/d) and control group continuously fed with high-fat diet.
Pair-feed (PF) group: the pair-feed group was set according to the daily food intake in the high-fat group after intervention with Anle138b 5 mg/kg, the rats were given the same amount of high-fat diet every day, and the changes in the body weight and the metabolic indexes were measured.

[4] = test system: high-fat-induced rat insulin resistance model; assay: High-fat-induced rat insulin resistance model, preventive administration; format: in vivo, C57BL/6J rats; conditions: high-fat diet, preventive 5 mg/kg
Excerpt: as §1, §2, §3, §4
Rats fed with high-fat diet for 5 weeks were randomly divided into high-fat feeding control group (n=6) and drug intervention group with Anle138b 5 mg/kg, and the rats were administered for 3 weeks continuously, once every two days.

[5] = 3 mg/kg/d, 2 weeks, 3 mg/kg/day
[6] = 5 mg/kg/d, 2 weeks, 5 mg/kg/day
[7] = 2 weeks, with increase of drug concentration
[8] = 1 mg/kg i.p. once a day, 2 weeks
[9] = 3 mg/kg i.p. once a day, 2 weeks
[10] = 5 mg/kg i.p. once a day, 2 weeks

SMILES: Brc1cccc(-c2cc(-c3ccc4c(c3)OCO4)[nH]n2)c1 [Anle138b]
- Fat weight index ([1]; 3 mg/kg): 0.01317±0.004212
- Feeding efficiency (daily body weight change/energy consumption) ([1]; 3 mg/kg): −0.007788±0.01949 g/calories/rat/day
- Glucose tolerance test area under curve (AUC) ([1]; 3 mg/kg): 1,203±155.6 min*mmol/L
- Liver weight index ([1]; 3 mg/kg): 0.04475±0.003
- Liver pathomorphism, HE staining ([1]; 3 mg/kg and 5 mg/kg): the hepatic steatosis was significantly alleviated
- Pancreas pathomorphism, HE staining ([1]; 3 mg/kg and 5 mg/kg, as the dose increases): the acinar steatosis was significantly alleviated
- Average daily food intake ([1]; 3 mg/kg once a day, 2 weeks): 1.946 ± 0.4777 g/day
- Body weight after intervention ([1]; 3 mg/kg once a day, 2 weeks): 28.97 ± 1.657 g
- Fasting Blood Glucose [1, 5]: 5.283 ± 0.74 mmol/L
- Fasting Insulin [1, 5]: 55.24±28.94 μIU/mL
- Insulin Resistance Index [1, 5]: 11.6±5.044 μIU/mL*mmol/L and 11.6 ± 5.04 μIU/mL*mmol/L
- Triglyceride [1, 5]: 0.5138 ± 0.06 mmol/L
- Fat weight index ([1]; 5 mg/kg): decreased
- Feeding efficiency (daily body weight change/energy consumption) ([1]; 5 mg/kg): −0.01528±0.01287 g/calories/rat/day
- Glucose tolerance test area under curve (AUC) ([1]; 5 mg/kg): 1,059±153.2 min*mmol/L
- Liver weight index ([1]; 5 mg/kg): 0.04344±0.0026
- Body weight after intervention ([1]; 5 mg/kg once a day, 2 weeks): 28.9 ± 1.685 g
- Average daily food intake ([1]; 5 mg/kg once a day, 2 weeks, P<0.001): significantly lower than that of the model group
- Fasting Blood Glucose [1, 6]: 4.867 ± 0.36 mmol/L
- Fasting Insulin [1, 6]: 36.27±16.53 μIU/mL
- Insulin Resistance Index [1, 6]: 8.446±3.617 μIU/mL*mmol/L and 8.446 ± 3.62 μIU/mL*mmol/L
- Triglyceride [1, 6]: 0.5164 ± 0.06 mmol/L
- Epididymal adipose tissue pathomorphism, HE staining [1, 7]: the adipocytes were reduced in sizes and arranged regularly
- Skeletal muscle pathomorphism, HE staining ([1]; drug intervention 2 weeks): the intermuscular steatosis was relieved
- Body Weight After Administration (normal rats): 25.65 ± 0.7842 g
- Fasting Blood Glucose (normal rats): 3.650 ± 0.33 mmol/L
- Fasting Insulin (normal rats; 3 mg/kg): 15.08±13.14 μIU/mL
- HOMA-IR (normal rats; 3 mg/kg): 1.1689±1.153 μIU/mL*mmol/L and 1.1689 ± 1.15 μIU/mL*mmol/L
- Body Weight After Administration [2, 8]: 25.58 ± 1.555* * g
- Fasting Blood Glucose [2, 8]: 5.100 ± 0.65 # mmol/L
- Fasting Insulin [2, 8]: 48.97 ± 1.38 μIU/mL
- HOMA-IR [2, 8]: 11.3 ± 1.78 μIU/mL*mmol/L
- Glucose tolerance test area under curve (AUC) ([2]; 1 mg/kg i.p., 2 weeks): 1,307±46.38 min*mmol/L
- Right epididymal fat weight index (fat weight/fasting body weight) ([2]; 1 mg/kg i.p., 2 weeks): 0.008918±0.0003788
- Body Weight After Administration [2, 9]: 25.51 ± 0.8009 g
- Fasting Blood Glucose [2, 9]: 5.300 ± 0.89 mmol/L
- Fasting Insulin [2, 9]: 21.46 ± 10.36 # μIU/mL
- HOMA-IR [2, 9]: 5.438 ± +2.13 # μIU/mL*mmol/L
- Right epididymal fat weight index (fat weight/fasting body weight) ([2]; 3 mg/kg i.p., 2 weeks): 0.007657±0.002366
- Body Weight After Administration [2, 10]: 24.25 ± +2.652 g
- Fasting Blood Glucose [2, 10]: 4.675 ± 0.95 # mmol/L
- Fasting Insulin [2, 10]: 25.74 ± 12.24 # μIU/mL
- HOMA-IR [2, 10]: 5.827 ± 3.78 # μIU/mL*mmol/L
- Glucose tolerance test area under curve (AUC) ([2]; 5 mg/kg i.p., 2 weeks): 1,261±103.2 min*mmol/L
- Right epididymal fat weight index (fat weight/fasting body weight) ([2]; 5 mg/kg i.p., 2 weeks): 0.007971±0.00142
- Epididymal adipose tissue pathomorphism, HE staining [2, 7]: the adipocytes were reduced in sizes and arranged regularly
- Liver pathomorphism, HE staining ([2]; different concentrations, dose-dependent): the hepatic steatosis was significantly alleviated
- Average body weight [3]: 28.23 ± 0.66 g
- Fasting Blood Glucose [3]: 4.87 ± 0.36 mmol/L
- Feeding efficiency [3]: −0.015±0.013
- Triglyceride [3]: 0.52 ± 0.06 mmol/L
- Adipose tissue pathomorphism, HE staining [4]: relieved the structural disorder of the adipose tissue
- Daily feeding efficiency [4]: −0.03518±0.02726
- Fasting Blood Glucose [4]: 6.313 ± 0.63 mmol/L
- Fasting Insulin [4]: 22.09±6.49 μIU/mL
- Fat weight index [4]: 0.01195±0.003
- Glucose tolerance test area under curve (AUC) [4]: 1,269±74 min*mmol/L
- Insulin Resistance Index [4]: 6.880±2.73 μIU/mL*mmol/L
- Liver weight index [4]: 0.03763±0.001
- Pancreas pathomorphism, HE staining [4]: significantly inhibit the steatosis of pancreatic acinar cells
- Total Cholesterol [4]: 3.383 ± 0.21 mmol/L
- Triglyceride [4]: 0.4687 ± 0.05 mmol/L
- Body weight at end point of prevention experiment ([4]; 3 weeks, once every two days): 25.8 ± 0.67 g
- Food intake ([4]; 3 weeks, once every two days): 1.805±0.19 g/rat

SMILES: COc1cc2c(cc1OC)[C@@H]1Cc3ccc(OC)c(OC)c3CN1CC2 [L-THP, reference compound]
- Body Weight After Administration [2, 9]: 24.24 ± 1.255 g
- Fasting Blood Glucose [2, 9]: 4.967 ± 0.39 # mmol/L
- Fasting Insulin [2, 9]: 24.76 ± 9.70 # # μIU/mL
- HOMA-IR [2, 9]: 6.029 ± 3.33 # μIU/mL*mmol/L
- Right epididymal fat weight index (fat weight/fasting body weight) ([2]; 3 mg/kg i.p., 2 weeks): 0.00751±0.002279
